Data reported in ChEMBL document CHEMBL1157610, “Bis(morpholino-1,3,5-triazine) derivatives: potent adenosine 5'-triphosphate competitive phosphatidylinositol-3-kinase/mammalian target of rapamycin inhibitors: discovery of compound 26 (PKI-587), a highly efficacious dual inhibitor” (J Med Chem, 2010).
Values after ≈ are worked out from the molar mass of the structure shown. Active and inactive are the calls of the source. The calls are words filed in the database; no cut-off is given here.

Experiments:
[1] = Membrane permeability at pH 7.4 by PAMPA assay; format: ADME; details: read-out: permeability
[2] = molecular target: Serine/threonine-protein kinase mTOR (Homo sapiens, UniProt P42345)
[3] = Solubility at pH 7.4; format: physicochemical; details: buffer
[4] = molecular target: Phosphatidylinositol 4,5-bisphosphate 3-kinase catalytic subunit gamma isoform (Homo sapiens, UniProt P48736)
Phosphatidylinositol 4,5-bisphosphate 3-kinase catalytic subunit gamma isoform, sequence (P48736 whole entry, canonical isoform): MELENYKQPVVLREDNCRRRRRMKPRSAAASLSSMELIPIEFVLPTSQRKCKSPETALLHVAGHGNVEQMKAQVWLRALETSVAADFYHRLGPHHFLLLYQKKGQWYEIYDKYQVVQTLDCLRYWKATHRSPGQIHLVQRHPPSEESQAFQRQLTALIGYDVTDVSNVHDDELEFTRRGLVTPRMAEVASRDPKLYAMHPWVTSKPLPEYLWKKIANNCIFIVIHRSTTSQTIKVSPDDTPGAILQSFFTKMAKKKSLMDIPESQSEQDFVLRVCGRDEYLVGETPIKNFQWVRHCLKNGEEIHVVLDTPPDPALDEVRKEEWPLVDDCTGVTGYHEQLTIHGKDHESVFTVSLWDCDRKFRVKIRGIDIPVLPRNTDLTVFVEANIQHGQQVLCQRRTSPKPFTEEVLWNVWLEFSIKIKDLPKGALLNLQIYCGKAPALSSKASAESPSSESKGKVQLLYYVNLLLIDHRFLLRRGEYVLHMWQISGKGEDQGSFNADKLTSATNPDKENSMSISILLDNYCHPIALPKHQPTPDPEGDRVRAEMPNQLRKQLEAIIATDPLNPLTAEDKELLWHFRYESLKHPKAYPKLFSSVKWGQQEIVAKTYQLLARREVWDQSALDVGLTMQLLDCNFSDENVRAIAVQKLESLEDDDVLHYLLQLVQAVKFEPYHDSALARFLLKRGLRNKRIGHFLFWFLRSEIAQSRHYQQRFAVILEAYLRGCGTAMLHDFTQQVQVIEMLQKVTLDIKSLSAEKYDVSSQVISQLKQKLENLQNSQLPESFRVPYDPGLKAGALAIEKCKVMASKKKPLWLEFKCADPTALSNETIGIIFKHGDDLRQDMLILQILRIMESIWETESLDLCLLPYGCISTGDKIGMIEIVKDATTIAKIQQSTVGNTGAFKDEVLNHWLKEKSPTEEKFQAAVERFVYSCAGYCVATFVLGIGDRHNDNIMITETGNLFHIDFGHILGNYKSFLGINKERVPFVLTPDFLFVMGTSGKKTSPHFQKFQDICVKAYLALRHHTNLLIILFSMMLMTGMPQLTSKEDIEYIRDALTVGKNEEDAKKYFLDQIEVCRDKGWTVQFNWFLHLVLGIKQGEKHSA

[5] = molecular target: Phosphatidylinositol 4,5-bisphosphate 3-kinase catalytic subunit alpha isoform (Homo sapiens, UniProt P42336)
Phosphatidylinositol 4,5-bisphosphate 3-kinase catalytic subunit alpha isoform, sequence (P42336 whole entry, canonical isoform): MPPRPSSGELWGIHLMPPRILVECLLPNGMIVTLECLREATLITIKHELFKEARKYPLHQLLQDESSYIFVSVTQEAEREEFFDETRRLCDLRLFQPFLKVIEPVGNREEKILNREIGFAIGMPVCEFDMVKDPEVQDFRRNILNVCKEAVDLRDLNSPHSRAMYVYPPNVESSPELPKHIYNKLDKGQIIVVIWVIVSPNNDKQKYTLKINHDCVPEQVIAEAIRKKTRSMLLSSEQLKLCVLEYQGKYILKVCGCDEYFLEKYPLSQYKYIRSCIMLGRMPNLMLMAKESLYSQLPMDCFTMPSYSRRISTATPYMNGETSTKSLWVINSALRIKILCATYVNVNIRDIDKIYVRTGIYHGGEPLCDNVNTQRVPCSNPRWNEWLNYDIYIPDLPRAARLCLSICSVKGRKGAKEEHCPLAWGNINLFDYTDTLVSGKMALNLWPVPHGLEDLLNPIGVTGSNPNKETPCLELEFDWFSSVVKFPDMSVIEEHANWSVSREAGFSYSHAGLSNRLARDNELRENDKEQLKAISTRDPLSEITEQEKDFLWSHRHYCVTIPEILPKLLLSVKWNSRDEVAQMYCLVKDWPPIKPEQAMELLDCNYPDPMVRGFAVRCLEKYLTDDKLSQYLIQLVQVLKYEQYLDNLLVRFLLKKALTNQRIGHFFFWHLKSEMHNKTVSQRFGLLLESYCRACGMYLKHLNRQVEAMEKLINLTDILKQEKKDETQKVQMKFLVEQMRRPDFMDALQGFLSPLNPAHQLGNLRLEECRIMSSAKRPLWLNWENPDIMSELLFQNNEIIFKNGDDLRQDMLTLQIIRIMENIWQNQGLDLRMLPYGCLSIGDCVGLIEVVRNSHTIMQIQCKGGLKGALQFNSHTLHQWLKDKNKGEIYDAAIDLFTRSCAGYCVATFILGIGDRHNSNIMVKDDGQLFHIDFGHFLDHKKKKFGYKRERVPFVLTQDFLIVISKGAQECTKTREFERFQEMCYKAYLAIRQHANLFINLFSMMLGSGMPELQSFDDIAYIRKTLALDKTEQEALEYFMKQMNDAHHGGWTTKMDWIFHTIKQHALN

[6] = molecular target: T1, Nitric oxide synthase 3 (Homo sapiens) (UniProt P29474); assay: Inhibition of eNOS phosphorylation in human MDA-MB-361 cells by Western blotting; format: cell-based
T1 sequence (whole entry): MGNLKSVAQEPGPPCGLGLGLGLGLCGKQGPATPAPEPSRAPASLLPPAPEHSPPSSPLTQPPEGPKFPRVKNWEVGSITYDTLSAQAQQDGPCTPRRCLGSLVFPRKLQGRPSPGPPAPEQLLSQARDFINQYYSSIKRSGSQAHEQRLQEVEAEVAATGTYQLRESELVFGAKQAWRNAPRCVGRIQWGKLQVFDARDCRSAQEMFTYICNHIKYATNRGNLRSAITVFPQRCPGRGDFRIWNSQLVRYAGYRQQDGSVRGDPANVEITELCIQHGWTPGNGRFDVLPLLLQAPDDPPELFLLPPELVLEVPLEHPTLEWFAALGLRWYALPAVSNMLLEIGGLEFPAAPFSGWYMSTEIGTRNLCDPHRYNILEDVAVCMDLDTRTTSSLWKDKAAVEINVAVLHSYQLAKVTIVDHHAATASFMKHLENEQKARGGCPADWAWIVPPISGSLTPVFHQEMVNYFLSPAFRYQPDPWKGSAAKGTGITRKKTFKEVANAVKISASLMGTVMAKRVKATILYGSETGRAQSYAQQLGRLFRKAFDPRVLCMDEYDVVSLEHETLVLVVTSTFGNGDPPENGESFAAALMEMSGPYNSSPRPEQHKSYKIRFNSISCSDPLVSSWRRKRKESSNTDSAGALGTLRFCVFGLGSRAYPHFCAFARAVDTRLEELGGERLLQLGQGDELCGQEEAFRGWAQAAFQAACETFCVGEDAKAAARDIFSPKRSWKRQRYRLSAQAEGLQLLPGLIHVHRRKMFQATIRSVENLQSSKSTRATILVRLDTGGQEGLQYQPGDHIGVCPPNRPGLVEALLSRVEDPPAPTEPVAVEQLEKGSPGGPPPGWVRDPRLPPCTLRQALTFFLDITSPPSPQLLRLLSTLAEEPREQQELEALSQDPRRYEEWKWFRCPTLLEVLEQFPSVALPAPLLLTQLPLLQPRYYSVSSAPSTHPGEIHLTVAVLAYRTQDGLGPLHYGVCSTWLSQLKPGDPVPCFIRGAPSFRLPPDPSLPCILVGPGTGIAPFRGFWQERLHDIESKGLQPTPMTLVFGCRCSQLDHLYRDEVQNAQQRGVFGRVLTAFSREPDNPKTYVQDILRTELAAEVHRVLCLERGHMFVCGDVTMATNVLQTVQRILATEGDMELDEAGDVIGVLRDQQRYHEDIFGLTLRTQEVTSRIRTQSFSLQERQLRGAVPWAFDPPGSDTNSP

[7] = Last AUC in mouse at 25 mg/kg, iv; format: ADME, organism-based; parameters: dose 25 mg/kg, route intravenous; details: in vivo
[8] = tested on: NCI-H1975; assay: Antitumor activity against human NCI-H1975 cells xenografted orthotopic mouse model assessed as survival at 25 mg/kg once weekly for 7 weeks relative to untreated control; format: functional
[9] = tested on: MDA-MB-361; assay: Induction of PARP cleavage in human MDA-MB-361 cells xenografted mouse model upto 18 hrs; format: functional, cell-based
[10] = molecular target: RAC-alpha serine/threonine-protein kinase (Homo sapiens) (UniProt P31749); assay: Inhibition of Akt T308 phosphorylation in human MDA-MB-361 cells xenografted mouse model upto 36 hrs; format: cell-based
RAC-alpha serine/threonine-protein kinase (Homo sapiens), sequence (P31749 whole entry): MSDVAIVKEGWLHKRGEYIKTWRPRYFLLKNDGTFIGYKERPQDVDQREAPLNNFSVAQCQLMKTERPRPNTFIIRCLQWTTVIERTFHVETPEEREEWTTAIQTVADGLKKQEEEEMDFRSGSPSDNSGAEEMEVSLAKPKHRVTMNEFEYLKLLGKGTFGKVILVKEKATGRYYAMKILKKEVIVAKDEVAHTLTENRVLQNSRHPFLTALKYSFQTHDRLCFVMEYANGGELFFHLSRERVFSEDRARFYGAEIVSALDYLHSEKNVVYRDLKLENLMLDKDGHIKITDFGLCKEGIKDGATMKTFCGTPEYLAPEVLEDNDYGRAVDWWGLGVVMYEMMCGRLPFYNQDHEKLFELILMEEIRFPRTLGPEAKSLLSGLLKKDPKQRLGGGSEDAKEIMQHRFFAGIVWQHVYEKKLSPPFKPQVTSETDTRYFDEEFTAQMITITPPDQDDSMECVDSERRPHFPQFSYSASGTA

[11] = molecular target: Glycogen synthase kinase-3 (Homo sapiens) (UniProt P49840+P49841); assay: Inhibition of GSK3 kinase phosphorylation in human MDA-MB-361 cells by Western blotting; format: cell-based
Glycogen synthase kinase-3 (Homo sapiens), sequence (P49840 whole entry, looked up): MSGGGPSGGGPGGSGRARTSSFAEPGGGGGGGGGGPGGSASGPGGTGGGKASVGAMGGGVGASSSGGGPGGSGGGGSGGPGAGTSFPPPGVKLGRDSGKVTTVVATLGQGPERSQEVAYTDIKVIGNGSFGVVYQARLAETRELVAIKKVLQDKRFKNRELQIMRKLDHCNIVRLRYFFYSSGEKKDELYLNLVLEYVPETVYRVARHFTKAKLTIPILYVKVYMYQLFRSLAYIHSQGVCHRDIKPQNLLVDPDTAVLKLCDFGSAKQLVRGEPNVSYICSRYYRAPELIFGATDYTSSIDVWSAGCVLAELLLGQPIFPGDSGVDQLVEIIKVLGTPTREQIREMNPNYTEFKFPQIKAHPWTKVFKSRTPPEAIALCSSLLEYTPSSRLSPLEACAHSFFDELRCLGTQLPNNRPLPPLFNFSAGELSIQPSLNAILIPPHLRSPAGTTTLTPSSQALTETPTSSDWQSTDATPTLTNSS
Glycogen synthase kinase-3 (Homo sapiens), sequence (P49841 whole entry, looked up): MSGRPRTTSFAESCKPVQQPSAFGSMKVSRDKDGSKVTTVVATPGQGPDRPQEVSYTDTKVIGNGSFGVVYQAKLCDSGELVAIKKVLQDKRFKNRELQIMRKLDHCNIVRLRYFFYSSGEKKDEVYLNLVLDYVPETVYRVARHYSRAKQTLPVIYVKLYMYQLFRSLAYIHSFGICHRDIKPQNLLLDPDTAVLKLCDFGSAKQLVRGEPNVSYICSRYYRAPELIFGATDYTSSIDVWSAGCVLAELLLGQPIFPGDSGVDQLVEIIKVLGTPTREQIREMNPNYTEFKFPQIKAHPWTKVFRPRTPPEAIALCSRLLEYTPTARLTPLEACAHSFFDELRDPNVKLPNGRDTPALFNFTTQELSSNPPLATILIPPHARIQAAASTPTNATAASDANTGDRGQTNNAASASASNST

[12] = molecular target: RAC-alpha serine/threonine-protein kinase (Homo sapiens) (UniProt P31749); assay: Inhibition of Akt S473 phosphorylation in human MDA-MB-361 cells xenografted mouse model upto 36 hrs; format: cell-based
[13] = Volume of distribution at steady state in mouse at 25 mg/kg, iv; format: ADME, organism-based; parameters: dose 25 mg/kg, route intravenous; details: in vivo, read-out: Vdss
[14] = Half life in mouse at 25 mg/kg, iv; format: ADME, organism-based; parameters: dose 25 mg/kg, route intravenous; details: in vivo
[15] = molecular target: Proline-rich AKT1 substrate 1 (Homo sapiens) (UniProt Q96B36); assay: Inhibition of PARS40 phosphorylation in human MDA-MB-361 cells by Western blotting; format: cell-based
[16] = tested on: Mus musculus; assay: Antitumor activity against human MDA-MB-361 cells xenografted mouse model assessed as maximum tolerated single dose; format: functional
[17] = Plasma clearance in mouse at 25 mg/kg, iv; format: ADME, organism-based; parameters: dose 25 mg/kg, route intravenous
[18] = […] in mouse at 25 mg/kg, iv; format: ADME, organism-based; parameters: dose 25 mg/kg, route intravenous; details: in vivo
[19] = AUC (0 to infinity) in mouse at 25 mg/kg, iv; format: ADME, organism-based; parameters: dose 25 mg/kg, route intravenous, time infinity; details: plasma
[20] = tested on: Mus musculus; assay: Antitumor activity against human MDA-MB-361 cells xenografted mouse model assessed as minimum effective dose; format: functional; details: read-out: MED
[21] = tested on: MDA-MB-361; assay: Antitumor activity against human MDA-MB-361 cells xenografted mouse model assessed as reduction in tumor volume at 20 mg/kg, iv on day 1, 5, 9; format: functional, organism-based; parameters: dose 20 mg/kg
[22] = tested on: MDA-MB-361; assay: cells; details: Homo sapiens
[23] = cells; details: Homo sapiens, PC3MM2

Row | Structure (SMILES) | Papp [1] | IC50 [2] | solubility [3] | IC50 [4] | IC50 [5] | IC50 [22] | IC50 [23] | other results
1 | O=C(Nc1ccc(-c2nc(N3CCOCC3)nc(N3CCOCC3)n2)cc1)NN1CCCCC1 | 0.01 ×10⁻⁶ cm/s | 460 nM | 100 µg/mL (≈ 213 µM) | 7470 nM | 1520 nM |  |  | 
2 | CN(C)C1CCN(C(=O)c2ccc(NC(=O)Nc3ccc(-c4nc(N5CCOCC5)nc(N5CCOCC5)n4)cc3)cc2)CC1 [GEDATOLISIB] | 0.1 ×10⁻⁶ cm/s |  | 14 µg/mL (≈ 22.7 µM) |  |  |  |  | Activity [6]: Active; AUC [7]: 42600 ng·h/mL; Activity [8]: 90%; Activity [9]: Active; Activity [10]: Active; Activity [11]: Active; Activity [12]: Active; Vd [13]: 7.2 L/kg; half-life [14]: 14.4 h; Activity [15]: Active; MTD [16]: 30 mg/kg; clearance [17]: 7 mL/min/kg; MRT [18]: 16.7 h; AUC(0-inf) [19]: 57900 ng·h/mL; minimal effective dose [20]: 3 mg/kg; Activity [21]: Active
3 | Cc1ccc(NC(=O)Nc2ccc(-c3nc(N4CCOCC4)nc(N4CCOCC4)n3)cc2)cc1 | 5.6 ×10⁻⁶ cm/s |  |  |  |  | 200 nM | 364 nM | 
4 | O=C(Nc1ccc(C(=O)N2CCC(N3CCCC3)CC2)cc1)Nc1ccc(-c2nc(N3CCOCC3)nc(N3CCOCC3)n2)cc1 |  | 0.8 nM | 33.5 µg/mL (≈ 52.2 µM) | 10 nM | 0.7 nM | 3 nM | 8.3 nM | 
5 | O=C(Nc1ccncc1)Nc1ccc(-c2nc(N3CCOCC3)nc(N3CCOCC3)n2)cc1 | 1.4 ×10⁻⁶ cm/s | 1.2 nM |  |  |  | 45 nM | 43 nM | 
6 | COC(=O)c1ccc(NC(=O)Nc2ccc(-c3nc(N4CCOCC4)nc(N4CCOCC4)n3)cc2)cc1 | 0.6 ×10⁻⁶ cm/s |  | 1 µg/mL (≈ 1.92 µM) |  |  | 115 nM | 45 nM | 
7 | CN(C)CCN(C)C(=O)c1ccc(NC(=O)Nc2ccc(-c3nc(N4CCOCC4)nc(N4CCOCC4)n3)cc2)cc1.Cl | 0.03 ×10⁻⁶ cm/s | 0.6 nM | 9 µg/mL | 9 nM |  | 9.8 nM | 18.3 nM | 
8 | CNC(=O)Nc1ccc(-c2nc(N3CCOCC3)nc(N3CCOCC3)n2)cc1 |  | 11.3 nM |  | 789 nM | 350 nM |  |  | 
9 | O=C(Nc1ccccc1)Nc1ccc(-c2nc(N3CCOCC3)nc(N3CCOCC3)n2)cc1 | 0.2 ×10⁻⁶ cm/s | 3.9 nM |  |  |  | 56 nM | 107 nM | 
10 | O=C(Nc1ccc(F)cc1)Nc1ccc(-c2nc(N3CCOCC3)nc(N3CCOCC3)n2)cc1 | 1 ×10⁻⁶ cm/s | 3.9 nM |  |  | 6.5 nM | 118 nM | 193 nM | 
11 | O=C(Nc1ccc(-c2nc(N3CCOCC3)nc(N3CCOCC3)n2)cc1)Nc1ccc(F)cc1F |  |  | 1 µg/mL (≈ 2.01 µM) |  |  | 794 nM | 5630 nM | 
12 | O=C(Nc1ccc(C(=O)O)cc1)Nc1ccc(-c2nc(N3CCOCC3)nc(N3CCOCC3)n2)cc1 |  | 1.5 nM | 52 µg/mL (≈ 103 µM) |  |  | 816 nM | 28 nM | 
13 | CNC(=O)c1ccc(NC(=O)Nc2ccc(-c3nc(N4CCOCC4)nc(N4CCOCC4)n3)cc2)cc1 |  |  | 1 µg/mL (≈ 1.93 µM) |  |  |  | 24 nM | 
14 | O=C(Nc1ccc(-c2nc(N3CCOCC3)nc(N3CCOCC3)n2)cc1)Nc1cccs1 | 2.4 ×10⁻⁶ cm/s |  | 2 µg/mL (≈ 4.28 µM) |  |  |  | 218 nM | 
15 | O=C(Nc1ccc(CCO)cc1)Nc1ccc(-c2nc(N3CCOCC3)nc(N3CCOCC3)n2)cc1 |  | 1.8 nM |  | 21.5 nM | 1.5 nM | 36 nM | 39 nM | 
16 | O=C(Nc1ccc(-c2nc(N3CCOCC3)nc(N3CCOCC3)n2)cc1)Nc1cccnc1 | 0.5 ×10⁻⁶ cm/s | 1.2 nM |  |  | 1.7 nM |  | 92 nM | 
17 | O=C(Nc1ccc(CO)cc1)Nc1ccc(-c2nc(N3CCOCC3)nc(N3CCOCC3)n2)cc1 | 0.2 ×10⁻⁶ cm/s |  |  |  |  | 30 nM | 30 nM | 
18 | CN(C)CCNC(=O)c1ccc(NC(=O)Nc2ccc(-c3nc(N4CCOCC4)nc(N4CCOCC4)n3)cc2)cc1 | 0.1 ×10⁻⁶ cm/s | 0.5 nM | 7 µg/mL (≈ 12.2 µM) | 8 nM | 0.4 nM | 3 nM | 11 nM | 
19 | CCNC(=O)Nc1ccc(-c2nc(N3CCOCC3)nc(N3CCOCC3)n2)cc1 | 0.7 ×10⁻⁶ cm/s | 10 nM | 1 µg/mL (≈ 2.42 µM) |  |  |  |  | 
20 | O=C(Nc1ccc(Cl)cc1)Nc1ccc(-c2nc(N3CCOCC3)nc(N3CCOCC3)n2)cc1 |  | 6.7 nM | 1 µg/mL (≈ 2.02 µM) |  |  | 407 nM | 293 nM | 
21 | O=C(Nc1ccc(C(=O)N2CCC(N3CCCCC3)CC2)cc1)Nc1ccc(-c2nc(N3CCOCC3)nc(N3CCOCC3)n2)cc1 |  | 0.7 nM | 31 µg/mL (≈ 47.3 µM) |  |  | 3 nM | 7 nM | 
22 | O=C(Nc1ccc(-c2nc(N3CCOCC3)nc(N3CCOCC3)n2)cc1)Nc1ccnnc1 |  |  | 1 µg/mL (≈ 2.16 µM) |  |  | 38 nM | 21 nM | 
23 | CN1CCN(C(=O)c2ccc(NC(=O)Nc3ccc(-c4nc(N5CCOCC5)nc(N5CCOCC5)n4)cc3)cc2)CC1 |  | 1.4 nM |  | 9 nM | 0.5 nM | 10 nM | 13 nM | 
